Laboratory results: the NIST ThermoML archive (doi:10.1016/j.jct.2017.03.006)

Test: xn = mol fraction of the nth substance listed
Conditions: Liquid; for viscosity: Concentric cylinders viscometry; for mass density: Vibrating tube method

Cc1ccc(C)c(C)c1 [1,2,4-trimethylbenzene] + CCCCO
Conditions	mass density, 100 kPa [kg/m3]	mass density, 1000 kPa [kg/m3]	mass density, 5000 kPa [kg/m3]	mass density, 10000 kPa [kg/m3]	mass density, 20000 kPa [kg/m3]	mass density, 30000 kPa [kg/m3]	mass density, 40000 kPa [kg/m3]	viscosity, 100 kPa [mPa·s]
323.15 K, x2 = 0.7975	–	–	–	–	–	–	–	1.027
323.15 K, x2 = 0.9131	–	–	–	–	–	–	–	1.22
333.15 K, x2 = 0	843.6	844.4	847.6	851.4	858.6	865.3	871.6	0.562
333.15 K, x2 = 0.1002	–	–	–	–	–	–	–	0.552
333.15 K, x2 = 0.1005	836.9	837.7	841	844.9	852.4	859.2	865.5	–
333.15 K, x2 = 0.2261	830.2	831	834.4	838.3	845.8	852.8	859.2	–
333.15 K, x2 = 0.2327	–	–	–	–	–	–	–	0.564
333.15 K, x2 = 0.2999	826.1	826.9	830.3	834.2	841.8	848.7	855.2	–
333.15 K, x2 = 0.3	–	–	–	–	–	–	–	0.582
333.15 K, x2 = 0.3966	820.6	821.4	824.8	828.8	836.4	843.4	849.8	–
333.15 K, x2 = 0.3969	–	–	–	–	–	–	–	0.6
333.15 K, x2 = 0.5289	812.8	813.6	817.1	821.1	828.7	835.7	842.2	–
333.15 K, x2 = 0.53	–	–	–	–	–	–	–	0.652
333.15 K, x2 = 0.6367	805.8	806.6	810.1	814.2	821.9	828.9	835.5	–
333.15 K, x2 = 0.637	–	–	–	–	–	–	–	0.711
333.15 K, x2 = 0.7249	799.8	800.7	804.2	808.3	816	823.1	829.6	–
333.15 K, x2 = 0.7975	–	–	–	–	–	–	–	0.853
333.15 K, x2 = 0.7977	794.5	795.3	798.8	803	810.7	817.8	824.4	–
333.15 K, x2 = 0.9131	785.6	786.4	789.9	794.1	801.9	809.1	–	0.996
